We go through 24 molecules from US11579152B2, “Engineered hERG channel proteins, vesicles and methods of identifying small molecule pharmacological agents” (priority 2016, dated 2023).

For one data set, the target named is hERG (Homo sapiens, UniProt Q12809). The conditions noted are these: cited from earlier work.
The target in data set [1] is T1, hERG channel (Homo sapiens, UniProt Q12809, DEL141-380/DEL871-1005).
For data set [2], the target named is T1, hERG channel. The data set is described as follows: in vitro. The conditions noted are these: pH 7.4.
In data set [3] the target is T1, hERG channel. The data set is described as follows: liposome flux assay (LFA) with engineered hERG channel protein in proteoliposomes. The note with it: n = 3, mean ± SEM, compared with DMSO controls. For orientation: The hERG channel carries a current that helps repolarise heart muscle cells.
Data set [4] addresses T1, hERG channel. In words: biochemical.
The mark [5] stands for this setting: read-out: IC50 patch, electrophysiology-determined values reported in the literature.

Where two headings read alike, the source gives them in different places.

For `O=c1n(CCCN2CCN(c3cccc(Cl)c3)CC2)nc2ccccn12` [Trazadone], the IC50 (usually the point on the concentration scale where inhibition reaches its midpoint) is 690 to 2900 nM on hERG and 9250 ± 529 nM against hERG channel [1].
Take `COc1cc(Cc2cnc(N)nc2N)cc(OC)c1OC` [Trimethoprim]: the inhibition (in general, the drop in the measured response relative to a control, in per cent) at 100 µM on hERG channel [2] turned out to be 20.6 ± 1.9%.
Regarding `CN(C)c1ccc(O)c2c1C[C@H]1C[C@H]3[C@H](N(C)C)C(O)=C(C(N)=O)C(=O)[C@@]3(O)C(O)=C1C2=O` [Minocycline], on hERG channel [2], the inhibition at 100 µM was -2.5 ± 11.9%.
On to `CCCCOc1ccc(CC(=O)NO)cc1` [Bufexamac], for which, on hERG channel [2], the inhibition at 100 µM worked out at 1.7 ± 6.8%.
For `Clc1cccc(Cl)c1N=C1NCCN1` [Clonidine], on hERG channel [2], the inhibition at 100 µM amounted to 15.2 ± 5.8%.
On the same count and under the same terms, in the case of `CC(=O)Nc1ccc(O)cc1` [Acetaminophen] it was 11.6 ± 7.5%; in that of `CC1(C)O[C@H]1COc1c2ccoc2cc2oc(=O)ccc12` [Oxypeucedanin], 4.5 ± 19.3%; in that of `CN/C(=N/CCSCc1nc[nH]c1C)NC#N` [Cimetidine], 19.9 ± 3.7%.
On the same count and under the same terms, the value for `CC1=C(CC(=O)O)c2cc(F)ccc2/C1=C\c1ccc([S+](C)[O-])cc1` (centres unmarked) [Sulindac] was 1.1 ± 2.8%.
For the molecule `C[N+]1([O-])CCN(C2=Nc3cc(Cl)ccc3Nc3ccccc32)CC1` [Clozapine N-oxide], the “Percentage inhibition (%) at 100 μM” value on hERG channel [1] (100 µM) is reported as 2.1 ± 3.0%.
Take `CC(=O)Nc1nnc(S(N)(=O)=O)s1` [Acetazolamide]: on hERG channel [2], the inhibition at 100 µM stood at 4.4 ± 1.8%.
Still for that read-out and setting: the value for `CC(=O)CC(c1ccccc1)c1c(O)c2ccccc2oc1=O` (centres unmarked) [Warfarin] was 9.1 ± 5.5%.
With `NC[C@H](O)c1ccc(O)c(O)c1` [Arterenol], on hERG channel [3], the “Percentage inhibition (%) at 100 μM” value is 3.7 ± 4.3%.
As for `COc1ccccc1OCC(O)CO` (centres unmarked) [Guaifenesin], the inhibition at 100 µM on hERG channel [2] is -3.5 ± 7.4%.
Still for that read-out and setting: the value for `C[N+](C)(C)CCOC(N)=O` [Carbachol] was 2.2 ± 4.2%.
As for `N=C(N)SCCc1ccc(OCc2ccc([N+](=O)[O-])cc2)cc1` [KB-R7943], the figures for the half-maximal inhibitory concentration (IC50) at hERG (setting [5]) and at hERG channel [1] were 89 nM and 1780 ± 140 nM, respectively.
Consider `COC[C@H]1OC(=O)c2coc3c2[C@@]1(C)C1=C(C3=O)[C@@H]2CCC(=O)[C@@]2(C)C[C@H]1OC(C)=O` [Wortmannin], for which the inhibition at 100 µM at hERG channel [2] stood at 1.7 ± 5.8%.
With `CN1CCN(CCCCN2C(=O)CN(/N=C/c3ccc(-c4ccc(Cl)cc4)o3)C2=O)CC1` [Azimilide], the IC50 at hERG (setting [5]) was 891 nM; on hERG channel [4], 4280 ± 1030 nM.
`C=C(CC)C(=O)c1ccc(OCC(=O)O)c(Cl)c1Cl` [Ethacrynic acid]: the inhibition at 100 µM at hERG channel [2] worked out at 8.1 ± 4.4%.
With `CCN(CC)CCCN(c1ccccc1)C1Cc2ccccc2C1` [Aprindine], the figures for the IC50 on hERG (setting [5]) and against hERG channel [4] were 230 nM and 1880 ± 221 nM, respectively.
For Penicillin, at hERG channel [3], the “Percentage inhibition (%) at 100 μM” value was −0.4 ± 9.5%.
As for `CC(C)Cc1ccc(C(C)C(=O)O)cc1` (centres unmarked) [Ibuprofen], the inhibition at 100 µM at hERG channel [2] was 13.1 ± 2.1%.
Same read-out and setting: the value for `CC1Cc2ccccc2N1NC(=O)c1ccc(Cl)c(S(N)(=O)=O)c1` (centres unmarked) [Indapamide] was 4.8 ± 6.7%.
Regarding `CC(C(O)c1ccc(O)cc1)N1CCC(Cc2ccccc2)CC1` (centres unmarked) [Ifenprodil], the IC50 was 410 nM on hERG (setting [5]) and 1590 ± 71 nM against hERG channel [4].
